Laboratory results taken from patent US20220273707A1, “COMPOSITIONS AND METHODS FOR TREATING CANINE PARVOVIRUS INFECTION” (MoxxiTech, LLC, priority 2021, published 2022).

Experiments:
Canine fibroblast cells = experiment: Viability of canine fibroblast cells in the absence of CPV infection (trypan blue exclusion); conditions: 1 μM, 72 hours
Description: (§1) Methods: Canine fibroblast cells were cultured in Dulbecco's modified Eagle's medium (DMEM) supplemented with 5% fetal bovine serum, 2 mM L-glutamine, 0.1 mM MEM non-essential amino acids, 1 mM sodium pyruvate, 0.05 mM 2-mercaptoethanol, 10 mM HEPES, 100 units/mL penicillin, and 100 mcg/mL streptomycin, at 38° C. with 5% CO2. Canine parvovirus type 2 (CPV2) was isolated from a fecal sample collected from a naturally infected dog. The virus was propagated on canine fibroblast cells and a titer of 10^13.37 tissue culture infectious doses (TCID50)/mL was used for viability assays. For viability assays, cells were routinely passaged and seeded in 96 well plates at 5×10^4 cells/mL in 200 μL complete DMEM media and incubated overnight at 38° C. with 5% CO2. The media was then removed and cells were infected with CPV2 for 1 hour at 38° C. with 5% CO2. […] A minimum of 3 independent experiments were performed for each assay.
Data shown are Mean±SEM, pooled from three independent experiments.

[1] = test system: Canine parvovirus type 2 (CPV2); experiment: Viability assay of canine fibroblast cells infected with CPV2 (trypan blue exclusion); format: cell-based; conditions: 72 hours post treatment; for cell viability after infection with CPV: added 1 hour after CPV2 infection
Description: as §1
72 hours post treatment, cells were assayed for viability. […] Data shown are Mean±SEM, pooled from three independent experiments.

Canine parvovirus (CPV) = experiment: Treatment of puppies naturally infected with CPV, standard veterinary protocol supplemented with oral ferric citrate solution; format: in vivo, dog; conditions: for survival rate: twice daily for up to five days, monitored for 14 days
Description: Puppies presenting with symptoms of CPV infection, including vomiting, diarrhea, hematochezia, lethargy, and depression, were tested for CPV infection using IDEXX Laboratories SNAP® Parvo Test per manufacturer's protocols.

Row | Compound | viability of treated versus untreated cells in the absence of CPV infection (Canine fibroblast cells) | decrease in survival compared to cells infected with CPV ([1]; 1 μM, CPV-infected cells) [%] | decrease in survival compared to the untreated cells ([1]; 1 μM, CPV-infected cells) [%] | survival rate (Canine parvovirus (CPV); 0.22 mg/kg orally, 1/3) [%] | mortality of the smallest puppies (<5 lbs) (Canine parvovirus (CPV); 0.22 mg/kg, lowest concentration tested) | survival rate (Canine parvovirus (CPV); 1.1 mg/kg orally, 2/5) [%] | survival rate (Canine parvovirus (CPV); 2.2 mg/kg (highest concentration) orally, 5/5) [%] | survival from natural infections with CPV with increasing concentrations (Canine parvovirus (CPV); increasing concentrations of ferric citrate (FIG. 3)) | cell viability after infection with CPV ([1]; 1 μM) | cell viability after infection with CPV ([1]; 10 μM)
1 | CC(=O)N(O)CCCCCNC(=O)CCC(=O)N(O)CCCCCNC(=O)CCC(=O)N(O)CCCCCN [deferoxamine, reference compound] | no significant difference | 23 | 45 |  |  |  |  |  |  | 
2 | ferric citrate |  |  |  | 33.33 | not able to prevent mortality | 40 | 100 | increased survival | significant increase | significant increase
